Assay results taken from patent US6706740B2, “Fungicidal heterocyclic aromatic amides and their compositions, methods of use and preparation” (Dow AgroSciences LLC, priority 1999, dated 2004).

Columns and labels:
[1] = system: Magnaporthe grisea (Pyricularia oryzae—PYRIOR); experiment: microbe, parasite or virus in culture; type: cell-based; details: Pyricularia oryzae, read-out: PYRIOR in vitro Growth Inhibition
[2] = system: Rhizoctonia solani (RHIZSO); experiment: microbe, parasite or virus in culture; type: cell-based; details: Rhizoctonia solani, read-out: RHIZSO in vitro Growth Inhibition
[3] = system: Mycosphaerella graminicola (Septoria tritici—SEPTTR); experiment: In vitro fungal growth inhibition, Mycosphaerella graminicola (SEPTTR); type: cell-based; details: Zymoseptoria tritici; 25 ppm in growth medium; read-out: SEPTTR in vitro Growth Inhibition
[4] = system: Stagonospora nodorum (Leptosphaeria nodorum—LEPTNO); experiment: In vitro fungal growth inhibition, Stagonospora nodorum (LEPTNO); type: cell-based; details: Leptosphaeria; 25 ppm in growth medium; read-out: LEPTNO in vitro Growth Inhibition
Ustilago maydis (USTIMA) = experiment: microbe, parasite or virus in culture; type: cell-based; details: Mycosarcoma maydis, read-out: USTIMA in vitro Growth Inhibition
[5] = system: Phytophthora infestans (PHYTIN); experiment: microbe, parasite or virus in culture; type: cell-based; details: Phytophthora infestans, read-out: PHYTIN in vitro Growth Inhibition
[6] = system: Phytophthora infestans—PHYTIN; experiment: whole plant or invertebrate; type: in vivo; details: Phytophthora, in Solanum lycopersicum, 24 h, read-out: PHYTIN in vivo 1 Day Protectant
[7] = system: Puccinia recondita—PUCCRT; experiment: Brown Rust of Wheat, in vivo whole plant, 24 Hour Protectant; details: 100 ppm spray, 24 hour protectant, wheat, control of fungal infection vs untreated plants; for pest or weed control at 100 ppm: Puccinia, read-out: PUCCRT in vivo 1 Day Protectant
Erysiphe graminis—ERYSGT = experiment: Powdery Mildew of Wheat, in vivo whole plant, 24 Hour Protectant; details: Erysiphe; 100 ppm spray, 24 hour protectant, wheat; control of fungal infection vs untreated plants; read-out: ERYSGT in vivo 1 Day Protectant
Septoria tritici—SEPTTR = experiment: Leaf Blotch of Wheat, in vivo whole plant, 24 Hour Protectant; details: 100 ppm spray, 24 hour protectant, wheat, control of fungal infection vs untreated plants; for pest or weed control at 100 ppm: Zymoseptoria tritici, 24 h, read-out: SEPTTR in vivo 1 Day Protectant
[8] = system: Leptosphaeria nodorum—LEPTNO; experiment: Glume Blotch of Wheat, in vivo whole plant, 24 Hour Protectant; details: 100 ppm spray, 24 hour protectant, wheat, control of fungal infection vs untreated plants; for pest or weed control at 100 ppm: Leptosphaeria, read-out: LEPTNO in vivo 1 Day Protectant

Row | SMILES | inhibition at 25 ppm [1] | inhibition at 25 ppm [2] | inhibition at 25 ppm [3] | inhibition at 25 ppm [4] | inhibition at 25 ppm (Ustilago maydis (USTIMA)) | inhibition at 25 ppm [5] | pest or weed control at 100 ppm [6] | pest or weed control at 100 ppm [7] | pest or weed control at 100 ppm (Erysiphe graminis—ERYSGT) | pest or weed control at 100 ppm (Septoria tritici—SEPTTR) | pest or weed control at 100 ppm [8] | SEPTTR in vivo 1 Day Protectant (Septoria tritici—SEPTTR) | PUCCRT in vivo 1 Day Protectant [7] | LEPTNO in vivo 1 Day Protectant [8]
1 | COc1ccnc(C(=O)NC2CC(C)(C)C(=O)C(C)(C)C2)c1O [Compound 266] | < 80% | < 80% | < 80% | < 80% | < 80% | < 80% | < 25% | < 25% | < 25% | 25 to 74% | 25 to 74% | – | – | –
2 | COc1ccnc(C(=O)NC2CC(C)(C)C(OC(=O)CC(C)C)C(C)(C)C2)c1O (centres unmarked) [Compound 267] | < 80% | < 80% | < 80% | > 80% | > 80% | > 80% | < 25% | 25 to 74% | < 25% | < 25% | 25 to 74% | – | – | –
3 | COc1ccnc(C(=O)NC2CC(C)(C)C(Oc3cc(C(F)(F)F)cc(C(F)(F)F)n3)C(C)(C)C2)c1O (centres unmarked) [Compound 272] | < 80% | < 80% | > 80% | < 80% | < 80% | < 80% | < 25% | < 25% | < 25% | – | 25 to 74% | + + | – | –
4 | COc1ccnc(C(=O)NC2CCCC(Sc3ccc(C(F)(F)F)cn3)C2)c1O (centres unmarked) [Compound 274] | > 80% | > 80% | > 80% | > 80% | < 80% | > 80% | < 25% | – | < 25% | 25 to 74% | – | – | + + | + +
5 | COc1ccnc(C(=O)NC2CCC(Sc3ccccc3)CC2)c1O (centres unmarked) [Compound 275] | < 80% | > 80% | > 80% | > 80% | < 80% | < 80% | < 25% | < 25% | < 25% | 25 to 74% | 25 to 74% | – | – | –
6 | COc1ccnc(C(=O)NC2CC(C)(C)CC(C)(C(=O)CCCc3ccccc3)C2)c1O (centres unmarked) [Compound 276] | < 80% | < 80% | < 80% | > 80% | < 80% | < 80% | < 25% | 25 to 74% | < 25% | 25 to 74% | – | – | – | + +
7 | COc1ccnc(C(=O)NC2CC(C)(C)CCCC2C)c1O (centres unmarked) [Compound 277] | < 80% | < 80% | > 80% | > 80% | < 80% | < 80% | < 25% | < 25% | < 25% | – | 25 to 74% | + + | – | –
8 | COc1ccnc(C(=O)NC2CC(C)(C)C=CC=C2C)c1O (centres unmarked) [Compound 278] | < 80% | < 80% | < 80% | < 80% | < 80% | < 80% | < 25% | 25 to 74% | < 25% | 25 to 74% | 25 to 74% | – | – | –
9 | COc1ccnc(C(=O)NC2CC(C)(C)C=CC(C)C2C)c1O (centres unmarked) [Compound 279] | < 80% | < 80% | > 80% | > 80% | < 80% | > 80% | 25 to 74% | < 25% | 25 to 74% | 25 to 74% | 25 to 74% | – | – | –
10 | COc1ccnc(C(=O)NC2CC(C)(C)C3OC3[C@H](C)[C@H]2C)c1O (some centres unmarked) [Compound 280] | < 80% | < 80% | < 80% | < 80% | < 80% | < 80% | 25 to 74% | 25 to 74% | < 25% | 25 to 74% | 25 to 74% | – | – | –
11 | COc1ccnc(C(=O)NC2CC(C)(C)C(Cl)C(Cl)[C@H](C)[C@H]2C)c1O (some centres unmarked) [Compound 281] | > 80% | < 80% | < 80% | < 80% | < 80% | > 80% | 25 to 74% | 25 to 74% | 25 to 74% | 25 to 74% | 25 to 74% | – | – | –
12 | COc1ccnc(C(=O)NC2CCCCCCC2)c1O [Compound 282] | < 80% | < 80% | < 80% | < 80% | < 80% | < 80% | < 25% | 25 to 74% | < 25% | 25 to 74% | 25 to 74% | – | – | –
13 | COc1ccnc(C(=O)NC2CC(C)(C)/C=C\CC(C)(C)C2)c1O (centres unmarked) [Compound 283] | < 80% | < 80% | < 80% | < 80% | < 80% | < 80% | < 25% | 25 to 74% | < 25% | – | 25 to 74% | + + | – | –
14 | COc1ccnc(C(=O)NC2CC3CCC2C3)c1O (centres unmarked) [Compound 287] | < 80% | > 80% | < 80% | < 80% | < 80% | < 80% | < 25% | 25 to 74% | < 25% | 25 to 74% | 25 to 74% | – | – | –
15 | COc1ccnc(C(=O)NC2C3(C)CCC(C3)C2(C)C)c1O (centres unmarked) [Compound 288] | < 80% | > 80% | < 80% | < 80% | < 80% | < 80% | < 25% | < 25% | < 25% | 25 to 74% | 25 to 74% | – | – | –
16 | COc1ccnc(C(=O)N[C@@H]2CC3CC2c2ccccc23)c1O (some centres unmarked) [Compound 290] | > 80% | > 80% | > 80% | > 80% | < 80% | < 80% | < 25% | – | 25 to 74% | 25 to 74% | – | – | + + | + +
17 | COc1ccnc(C(=O)N[C@H]2CC3CC2[C@@H](COCc2cccc(C(F)(F)F)c2)C3)c1O (some centres unmarked) [Compound 295] | > 80% | > 80% | > 80% | > 80% | < 80% | < 80% | < 25% | 25 to 74% | < 25% | – | 25 to 74% | + + | – | –
18 | COc1ccnc(C(=O)N[C@@H]2CC3CC2C[C@@H]3COCc2cccc(C(F)(F)F)c2)c1O (some centres unmarked) [Compound 297] | > 80% | > 80% | > 80% | > 80% | < 80% | < 80% | < 25% | < 25% | < 25% | 25 to 74% | 25 to 74% | – | – | –
19 | COc1ccnc(C(=O)N[C@@H]2CC3CC2[C@H]2COC[C@@H]32)c1O (some centres unmarked) [Compound 302] | < 80% | < 80% | < 80% | < 80% | < 80% | < 80% | < 25% | < 25% | < 25% | 25 to 74% | 25 to 74% | – | – | –
